In patent publication US12152048B2, “Nitroxoline prodrug and use thereof” (Jiangsu Yahong Meditech Co., Ltd., priority 2018, dated 2024):
≈ marks a conversion by molar mass, not a printed value.

Key:
[1] = Stability in human liver microsome; conditions: 2 μM, 37° C., 30 minutes
Procedure: Experimental instruments: thermostatic shaker (SHA-B, Guohua Electric Appliance Co., Ltd.); centrifuge (5810R, Eppendorf); mass spectrometry (API4000, Applied Biosystems, USA); liquid chromatography (LC-30AD, Shimadzu); sample injector (CTC Analytics AG System, CTC).
Experimental process: 25 μg/mL alamethicin (Aldrich), 5 mM magnesium chloride and 0.5 mg/mL microsome (XENOTECH) were added to 100 mM phosphate buffer to obtain a coenzyme-free reaction solution. A portion of the coenzyme-free reaction solution was added with 1 mM reductive nicotinamide adenine dinucleotide phosphate (Aldrich) and 5 mM uridine diphosphate glucuronic acid (Aldrich) to obtain a coenzyme-containing reaction solution. The working solution of the compound of the present invention was added to the two reaction solutions so that the final concentration of the compound was 2 μM. Immediately after mixing well, 50 μL of the solution were taken out as the 0 minute sample, and 50 μL of the remaining sample were taken out after incubating at 37° C. for 30 minutes. All the samples taken out were immediately processed to precipitate protein, and centrifuged to obtain a supernate for the determination of the compound concentration by LC/MS/MS.

[2] = Stability in dog liver microsome; conditions: 2 μM, 37° C., 30 minutes
[3] = Stability in human plasma
Source text: (§1) Experimental instruments: thermostatic shaker (SHA-B, Guohua Electric Appliance Co., Ltd.); centrifuge (5810R, Eppendorf); mass spectrometry (AP4000, Applied Biosystems, USA); liquid chromatography (LC-30AD, Shimadzu); sample injector (CTC Analytics AG System, CTC).
(§2) Test animals: plasma of human (batch number: BRH1343165), rat (batch number: RAT336728), mouse (batch number: MSE280000), dog (batch number: BGL99137) and monkey (batch number: PH-Monkey-20180821) are purchased from Shanghai Sixin Biological Technology Co., Ltd.
(§3) Experimental process: the compound of the present invention was dissolved in an organic solvent to obtain a 1 mM working solution. 3 μL of the working solution were added to 597 μL of pre-incubated human or rat plasma and mixed well. 50 μL of the solution were immediately taken out as the 0 minute sample. The remaining sample was incubated at 37° C., and 50 μL of sample were taken out at 15, 30, 60 and 120 minutes respectively. All the samples taken out were immediately processed to precipitate protein, and centrifuged to obtain a supermate for the determination of the compound concentration by LC/MS/MS.

[4] = Stability in plasma, overall conclusion (species not stated); conditions: conclusion in words
[5] = Stability in mouse liver microsome; format: in vitro ADME; conditions: 2 μM, 37° C., 30 minutes
[6] = Determination of water solubility in phosphate buffer; format: physicochemical; conditions: for solubility at 24 h: thermodynamic from solid
In short: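 2 mg solid compound shaken in 500 μL phosphate buffer (pH 1.2, 4.5, 6.8 or 7.4) in a sealed flask, room temperature, 24 h. Suspension vacuum-filtered; dissolved concentration in filtrate quantified by LC/MS/MS.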

[7] = Stability in rat liver microsome; conditions: 2 μM, 37° C., 30 minutes
Stability in dog plasma = format: in vitro ADME
Source text: as §1, §2, §3

[8] = Pharmacokinetics assay in dog (nitroxoline concentration in plasma after single intravenous or oral administration); format: in vivo, beagle dog; conditions: for AUC0-inf: nitroxoline in beagle dog plasma
Source text: Nitroxoline is mainly metabolized by the phase II metabolism in liver with a fast metabolism rate, so it has a short half-life in the body. The present invention modified its structure and 13 compounds of formula (I) were obtained through chemical synthesis. The change of nitroxoline concentration in dog plasma after a single intravenous or oral administration of nitroxoline and the compound of formula (I) was studied to evaluate the pharmacokinetic behavior of nitroxoline and the compound of formula (I) in dog body.
Male beagle dog (Beijing Marshall Biotechnology Co., Ltd., Certificate No.: SCXK (BJ) 2016-0001, Qualified number: 11400600001728), 3 dogs per group, weight 10 to 13 kg, 20 to 22 months old. The dogs were fasted overnight before the administration with free access to water, and fed 4 hours after the administration. The test compound was added to an EP tube, and then added with DMSO, solutol and sterilized water for injection (the volume ratio of the three was 1:2:17, v:v:v). The EP tube was subjected to ultrasound for 20 minutes to make the test compound dissolve well (compound concentration: 0.005 mmol/mL). The dose for intravenous administration was 0.01 mmol/kg, and the dose for oral administration was 0.1 mmol/kg. 0.3 ml of whole blood was collected from jugular vein before the administration (0 hour) and 0.0833, 0.25, 0.5, 1, 2, 4, 6, 8, 10 and 12 hours after the administration (sampling points can be adjusted according to the specific situation) respectively. The blood sample was placed in a centrifuge tube containing EDTA-K2 anticoagulant (Aldrich), and the centrifuge tube was left to stand in ice. The blood sample was centrifuged for 10 minutes at 1530 g within 0.5 hour to obtain all clean plasma. The plasma was placed in another clean centrifuge tube, and stored in a refrigerator at −20° C. for later use.
Solution for standard curve was formulated. 1000 μL of internal standard working solution (containing a solution of verapamil (5 ng/mL, Aldrich), glibenclamide (50 ng/mL, Aldrich) and diclofenac (50 ng/mL, Aldrich) in acetonitrile) was added to 10 μL of the solution for standard curve and sample, and the mixture was shaked by vortex for 5 minutes. The mixture was centrifuged for 10 minutes at 4° C., 3700 rpm. 60 μL of the supernatant were placed in an injection tube, and mixed with 120 μL of water. 10 μL of the solution were injected into the liquid chromatography-mass spectrometry system for determination. The pharmacokinetic parameters were calculated by the WinNonlin V 6.2 non-compartmental model.

[9] = aqueous buffer, phosphate buffer pH 7.4, room temperature

Source text for Stability in rat plasma: as §1, §2, §3

Row | Structure (SMILES) | Percentage of the compound remaining in human liver microsome ([1]; with coenzyme) [%] | Percentage of the compound remaining in human liver microsome ([1]; without coenzyme) [%] | Percentage of the compound remaining in dog liver microsome ([2]; with coenzyme) [%] | Percentage of the compound remaining in dog liver microsome ([2]; without coenzyme) [%] | Percentage of the compound remaining in plasma ([3]; 0 minute) [%] | Percentage of the compound remaining in plasma ([3]; 37° C., 15 minutes) [%] | Percentage of the compound remaining in plasma ([3]; 37° C., 30 minutes) [%] | Percentage of the compound remaining in plasma ([3]; 37° C., 60 minutes) [%] | Percentage of the compound remaining in plasma ([3]; 37° C., 120 minutes) [%] | stability in plasma [4] | Percentage of the compound remaining in mouse liver microsome ([5]; with coenzyme) [%] | Percentage of the compound remaining in mouse liver microsome ([5]; without coenzyme) [%] | solubility at 24 h [6, 9] [µg/mL] | Percentage of the compound remaining in rat liver microsome ([7]; with coenzyme) [%] | Percentage of the compound remaining in rat liver microsome ([7]; without coenzyme) [%] | Percentage of the compound remaining in plasma (Stability in rat plasma; 0 minute) [%] | Percentage of the compound remaining in plasma (Stability in rat plasma; 37° C., 15 minutes) [%] | Percentage of the compound remaining in plasma (Stability in rat plasma; 37° C., 30 minutes) [%] | Percentage of the compound remaining in plasma (Stability in rat plasma; 37° C., 60 minutes) [%] | Percentage of the compound remaining in plasma (Stability in rat plasma; 37° C., 120 minutes) [%] | also measured
1 | COC(=O)CN(C)C(=O)Oc1ccc([N+](=O)[O-])c2cccnc12 [Compound 57, methyl 2-(methyl((5-nitroquinolin-8-yloxy)formyl)amino)acetate] | 0.16 | 0.15 | 0.03 | 75.50 | 100.0 | 99.8 | 93.0 | 76.2 | 60.2 | high stability | 5.57 | 76.69 | 138 (≈ 432 µM) | 23.06 | 44.33 | 100.0 | 0.1 | 0.0 | 0.0 | 0.0 | –
2 | CCC(C)C(NC(=O)OCOc1ccc([N+](=O)[O-])c2cccnc12)C(=O)OC (stereo not shown) [Compound 55, methyl 3-methyl-2-(((5-nitroquinolin-8-yloxy)methoxy)formamido)pentanoate] | 61.24 | 81.91 | 70.73 | 84.65 | 100.0 | 91.3 | 94.5 | 92.1 | 68.7 | high stability | 2.01 | 90.39 | 15.5 (≈ 39.7 µM) | 8.58 | 52.76 | 100.0 | 48.9 | 24.7 | 5.0 | 0.3 | Percentage of the compound remaining in plasma (Stability in dog plasma; 0 minute): 100.0%; Percentage of the compound remaining in plasma (Stability in dog plasma; 37° C., 15 minutes): 99.6%; Percentage of the compound remaining in plasma (Stability in dog plasma; 37° C., 30 minutes): 97.5%; Percentage of the compound remaining in plasma (Stability in dog plasma; 37° C., 60 minutes): 83.3%; Percentage of the compound remaining in plasma (Stability in dog plasma; 37° C., 120 minutes): 70.1%
3 | CCC(C)C(C(=O)OC)N(C)C(=O)OCOc1ccc([N+](=O)[O-])c2cccnc12 (stereo not shown) [Compound 56, methyl 3-methyl-2-(methyl(((5-nitroquinolin-8-yloxy)methoxy)formyl)amino)pentanoate] | 0.12 | 71.66 | 14.94 | 118.35 | 100.0 | 98.9 | 98.2 | 103.6 | 93.2 | high stability | 0.44 | 103.05 | 39.8 (≈ 98.2 µM) | 0.45 | 62.17 | 100.0 | 2.8 | 0.1 | 0.0 | 0.0 | –
4 | CCC(NC(=O)OCOc1ccc([N+](=O)[O-])c2cccnc12)C(=O)OC (stereo not shown) [Compound 54, methyl 2-(((5-nitroquinolin-8-yloxy)methoxy)formamido)butanoate] | 31.49 | 29.40 | 61.38 | 70.31 | 100.0 | 108.6 | 103.3 | 93.4 | 71.9 | high stability | 9.85 | 31.90 | 24.4 (≈ 67.3 µM) | 10.77 | 13.97 | 100.0 | 0.0 | 0.0 | 0.0 | 0.0 | Percentage of the compound remaining in plasma (Stability in dog plasma; 0 minute): 100.0%; Percentage of the compound remaining in plasma (Stability in dog plasma; 37° C., 15 minutes): 100.3%; Percentage of the compound remaining in plasma (Stability in dog plasma; 37° C., 30 minutes): 99.2%; Percentage of the compound remaining in plasma (Stability in dog plasma; 37° C., 60 minutes): 92.4%; Percentage of the compound remaining in plasma (Stability in dog plasma; 37° C., 120 minutes): 74.7%
5 | CC(C)C(=O)N1CCC[C@H]1C(=O)OCOc1ccc([N+](=O)[O-])c2cccnc12 [Compound 20, (S)-(5-nitroquinolin-8-yloxy)methyl 1-isopropionylpyrrolidine-2-carboxylate] | 26.92 | 59.42 | 33.13 | 53.50 | – | – | – | – | – | – | 0.09 | 49.07 | 978 (≈ 2530 µM) | 3.64 | 46.82 | – | – | – | – | – | absorption in beagle dogs compared with nitroxoline ([8]; conclusion in words): well absorbed; AUC0-inf ([8]; intravenous administration 0.01 mmol/kg): 1290 ng*hmL^−1; AUC0-inf ([8]; oral administration 0.1 mmol/kg): 8750 ng*hmL^−1; solubility at 24 h ([6]; aqueous buffer, phosphate buffer pH 4.5, room temperature): 1050 µg/mL (≈ 2700 µM); solubility at 24 h ([6]; aqueous buffer, phosphate buffer pH 6.8, room temperature): 962 µg/mL (≈ 2480 µM); water solubility compared with nitroxoline ([6]; conclusion in words): increased by several times; solubility at 24 h ([6]; simulated gastric fluid, phosphate buffer pH 1.2, room temperature): 1010 µg/mL (≈ 2610 µM)
